Measurements: patent publication US11084829B2, “Ubiquitin-specific-processing protease 7 (USP7) modulators and uses thereof” (RAPT THERAPEUTICS, INC., priority 2018, dated 2021)

Target: USP7 (Homo sapiens, UniProt Q93009)
Test: USP7 inhibitory potency (IC50)
Format: biochemical
Description: Activity for compounds described herein is provided in Table 2, wherein potency levels are provided as follows: (Potency: USP7 IC50: A<0.01 μM; B=0.01-0.1 μM; C=>0.1 μM.

USP7, sequence (Q93009 whole entry): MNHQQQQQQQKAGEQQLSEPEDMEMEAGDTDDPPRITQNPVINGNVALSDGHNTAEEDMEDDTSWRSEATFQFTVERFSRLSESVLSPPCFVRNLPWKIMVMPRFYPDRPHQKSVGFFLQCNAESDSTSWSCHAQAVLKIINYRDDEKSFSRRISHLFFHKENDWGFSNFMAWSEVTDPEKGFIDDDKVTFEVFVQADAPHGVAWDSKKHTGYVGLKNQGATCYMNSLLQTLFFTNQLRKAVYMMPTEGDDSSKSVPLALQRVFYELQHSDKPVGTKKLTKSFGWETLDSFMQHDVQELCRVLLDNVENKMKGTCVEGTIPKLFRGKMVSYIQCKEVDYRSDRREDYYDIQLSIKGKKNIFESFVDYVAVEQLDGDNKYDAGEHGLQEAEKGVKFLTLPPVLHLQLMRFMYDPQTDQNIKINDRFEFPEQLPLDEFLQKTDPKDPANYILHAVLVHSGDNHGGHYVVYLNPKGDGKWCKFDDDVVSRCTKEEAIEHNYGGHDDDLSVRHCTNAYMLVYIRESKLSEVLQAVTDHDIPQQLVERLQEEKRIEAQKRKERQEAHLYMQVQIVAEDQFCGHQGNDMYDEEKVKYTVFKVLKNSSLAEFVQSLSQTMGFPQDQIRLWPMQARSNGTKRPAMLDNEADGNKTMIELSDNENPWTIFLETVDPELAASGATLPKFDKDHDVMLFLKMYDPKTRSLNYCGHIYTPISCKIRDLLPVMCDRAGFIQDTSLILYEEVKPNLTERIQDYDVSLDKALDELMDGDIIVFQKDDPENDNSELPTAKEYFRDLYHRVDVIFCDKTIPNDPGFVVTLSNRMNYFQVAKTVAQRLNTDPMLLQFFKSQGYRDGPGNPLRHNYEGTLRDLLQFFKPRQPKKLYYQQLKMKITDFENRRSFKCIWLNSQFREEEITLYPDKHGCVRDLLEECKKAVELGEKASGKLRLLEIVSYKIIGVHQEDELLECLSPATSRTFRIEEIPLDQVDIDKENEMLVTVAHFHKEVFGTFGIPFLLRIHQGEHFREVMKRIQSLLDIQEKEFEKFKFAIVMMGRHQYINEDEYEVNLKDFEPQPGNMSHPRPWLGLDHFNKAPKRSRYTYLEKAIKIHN

Compound | IC50 [nM]
Cc1cc(Cl)cc(-c2ccnc3cc(CN4C(=O)C5CC5C4=O)sc23)c1C[C@@H]1CNC[C@@H](C)O1 (stereo partly drawn) [Example 99, 3-((7-(5-chloro-3-methyl-2-(((2R,6R)-6-methylmorpholin-2-yl)methyl)phenyl)thieno[3,2-b]pyridin-2-yl)methyl)-3-azabicyclo[3.1.0]hexane-2,4-dione] | < 10
Cc1cc(Cl)cc(-c2ccnc3cc(Cn4c(=O)ccn(CC(F)(F)F)c4=O)sc23)c1CN1CCNCC1 [Example 2, 3-((7-(5-chloro-3-methyl-2-(piperazin-1-ylmethyl)phenyl)thieno[3,2-b]pyridin-2-yl)methyl)-1-(2,2,2-trifluoroethyl)pyrimidine-2,4(1H,3H)-dione] | < 10
Cc1cc(Cl)cc(-c2ncnc3cc(CN4CCCCC4=O)sc23)c1CC1CNCCO1 (stereo not shown) [Example 175, 1-((4-(5-chloro-3-methyl-2-(morpholin-2-ylmethyl)phenyl)thieno[3,2-d]pyrimidin-6-yl)methyl)piperidin-2-one] | > 100
Cc1cc(Cl)cc(-c2ccnc3cc(CN4C(=O)CCC4=O)sc23)c1CN1CCN(C)C[C@@H]1C [Example 3, (S)-1-((7-(5-chloro-2-((2,4-dimethylpiperazin-1 yl)methyl)-3-methylphenyl)thieno[3,2-b]pyridin-2-yl)methyl)pyrrolidine-2,5-dione] | < 10
Cc1cc(Cl)cc(-c2ncnc3cc(CN4C(=O)C5CC5C4=O)sc23)c1CC1CNCCOC1 (stereo not shown) [Example 185, 3-((4-(2-((1,4-oxazepan-6-yl)methyl)-5-chloro-3-methylphenyl)thieno[3,2-d]pyrimidin-6-yl)methyl)-3-azabicyclo[3.1.0]hexane-2,4-dione] | 10 to 100
Cc1cc(Cl)cc(-c2ccnc3cc(CN4C(=O)C5CC5C4=O)sc23)c1CC1CNCC2(CC2)O1 (stereo not shown) [Example 132, 3-((7-(2-((4-oxa-7-azaspiro[2.5]octan-5-yl)methyl)-5-chloro-3-methylphenyl)thieno[3,2-b]pyridin-2-yl)methyl)-3-azabicyclo[3.1.0]hexane-2,4-dione] | < 10
Cc1cc(Cl)cc(-c2ccnc3cc(CN4C(=O)C5CC5C4=O)sc23)c1CN1CCNC(=O)C1C (stereo not shown) [Example 40, 3-((7-(5-chloro-3-methyl-2-((2-methyl-3-oxopiperazin-1-yl)methyl)phenyl)thieno[3,2-b]pyridin-2-yl)methyl)-3-azabicyclo[3.1.0]hexane-2,4-dione] | 10 to 100
Cc1cc(Cl)cc(-c2ncnc3cc(Cn4c(=O)ccn(C)c4=O)sc23)c1CN1C[C@@H](C)NC[C@@H]1C [Example 66, 3-((4-(5-chloro-2-(((2S,5R)-2,5-dimethylpiperazin-1-yl)methyl)-3-methylphenyl)thieno[3,2-d]pyrimidin-6-yl)methyl)-1-methylpyrimidine-2,4(1H,3H)-dione] | < 10
Cc1cc(Cl)cc(-c2ccnc3cc(CN4C(=O)C5CC5C4=O)sc23)c1CN1C[C@H](C)NC[C@H]1C (stereo partly drawn) [Example 37, 3-((7-(5-chloro-2-(((2R,5 S)-2,5-dimethylpiperazin-1-yl)methyl)-3-methylphenyl)thieno[3,2-b]pyridin-2-yl)methyl)-3-azabicyclo[3.1.0]hexane-2,4-dione] | < 10
Cc1cc(Cl)cc(-c2ncnc3cc(CN4C(=O)CCC4=O)sc23)c1CN1[C@@H](C)CNC[C@@H]1C [Example 77, 1-((4-(5-chloro-2-(((2S,6S)-2,6-dimethylpiperazin-1-yl)methyl)-3-methylphenyl)thieno[3,2-d]pyrimidin-6-yl)methyl)pyrrolidine-2,5-dione] | < 10
Cc1cc(Cl)cc(-c2ncnc3cc(CN4C(=O)CCN(CCO)C4=O)sc23)c1C[C@@H]1CNCC(C)(C)O1 [Example 271, (R)-3-((4-(5-chloro-2-((6,6-dimethylmorpholin-2-yl)methyl)-3-methylphenyl)thieno[3,2-d]pyrimidin-6-yl)methyl)-1-(2-hydroxyethyl)dihydropyrimidine-2,4(1H,3H)-dione] | < 10
CCN1CCN(Cc2c(C)cc(Cl)cc2-c2ccnc3cc(CN4C(=O)CCC4=O)sc23)[C@@H](C)C1 [Example 11, (S)-1-((7-(5-chloro-2-((4-ethyl-2-methylpiperazin-1-yl)methyl)-3-methylphenyl)thieno[3,2-b]pyridin-2-yl)methyl)pyrrolidine-2,5-dione] | < 10
Cc1cc(Cl)cc(-c2ccnc3cc(CN4C(=O)C5CC5C4=O)sc23)c1CN1C[C@@H](C)NC[C@@H]1C (stereo partly drawn) [Example 36, 3-((7-(5-chloro-2-(((2S,5R)-2,5-dimethylpiperazin-1-yl)methyl)-3-methylphenyl)thieno[3,2-b]pyridin-2-yl)methyl)-3-azabicyclo[3.1.0]hexane-2,4-dione] | 10 to 100
CN1CCC(=O)N(Cc2cc3ncnc(-c4cc(Cl)cc(Cl)c4CC4CNCC(C)(C)O4)c3s2)C1=O (stereo not shown) [Example 210, 3-((4-(3,5-dichloro-2-((6,6-dimethylmorpholin-2-yl)methyl)phenyl)thieno[3,2-d]pyrimidin-6-yl)methyl)-1-methyldihydropyrimidine-2,4(1H,3H)-dione] | < 10
Cc1cc(Cl)cc(-c2ncnc3cc(CN4C(=O)COC4=O)sc23)c1C[C@@H]1CNCC(C)(C)O1 [Example 234, (R)-3-((4-(5-chloro-2-((6,6-dimethylmorpholin-2-yl)methyl)-3-methylphenyl)thieno[3,2-d]pyrimidin-6-yl)methyl)oxazolidine-2,4-dione] | < 10
COC(=O)C1CC1C(=O)NCc1cc2ncnc(-c3cc(Cl)cc(C)c3C[C@H]3OCCN[C@@H]3C)c2s1 (stereo partly drawn) [Example 161, methyl 2-(((4-(5-chloro-3-methyl-2-(((2R,3R)-3-methylmorpholin-2-yl)methyl)phenyl)thieno[3,2-d]pyrimidin-6-yl)methyl)carbamoyl)cyclopropane-1-carboxylate] | 10 to 100
Cc1cc(Cl)cc(-c2ncnc3cc(CN4C(=O)C5C(C4=O)C5(C)C)sc23)c1CN1CCN(C)C[C@@H]1C (stereo partly drawn) [Example 53, 3-((4-(5-chloro-2-(((S)-2,4-dimethylpiperazin-1-yl)methyl)-3-methylphenyl)thieno[3,2-d]pyrimidin-6-yl)methyl)-6,6-dimethyl-3-azabicyclo[3.1.0]hexane-2,4-dione] | 10 to 100

Further lines, results first:

IC50 [nM] | Compound
10 to 100 | Cc1cc(Cl)cc(-c2ccnc3cc(CN4C(=O)C5CC5C4=O)sc23)c1C[C@H]1CNCC(C)(C)O1 (stereo partly drawn) [Example 134, 3-((7-(5-chloro-2-(((S)-6,6-dimethylmorpholin-2-yl)methyl)-3-methylphenyl)thieno[3,2-b]pyridin-2-yl)methyl)-3-azabicyclo[3.1.0]hexane-2,4-dione]
< 10 | Cc1cc(Cl)cc(-c2ccnc3cc(CN4C(=O)C5C(C4=O)C5(C)C)sc23)c1CC1CNCC(C)(C)O1 (stereo not shown) [Example 97, 3-((7-(5-chloro-2-((6,6-dimethylmorpholin-2-yl)methyl)-3-methylphenyl)thieno[3,2-b]pyridin-2-yl)methyl)-6,6-dimethyl-3-azabicyclo[3.1.0]hexane-2,4-dione]
< 10 | Cc1cc(Cl)cc(-c2ccnc3cc(CN4C(=O)CCC4=O)sc23)c1CC1CNCC2(CCC2)O1 (stereo not shown) [Example 143, 1-((7-(2-((5-oxa-8-azaspiro[3.5]nonan-6-yl)methyl)-5-chloro-3-methylphenyl)thieno[3,2-b]pyridin-2-yl)methyl)pyrrolidine-2,5-dione]
10 to 100 | Cc1cc(Cl)cc(-c2ccnc3cc(CN4C(=O)CCC4=O)sc23)c1CN1CCNC[C@H]1C [Example 7, (R)-1-((7-(5-chloro-3-methyl-2-((2-methylpiperazin-1-yl)methyl)phenyl)thieno[3,2-b]pyridin-2-yl)methyl)pyrrolidine-2,5-dione]
< 10 | 3-((4-(2-((5-oxa-8-azaspiro[3.5]nonan-6-yl)methyl)-5-chloro-3-methylphenyl)thieno[3,2-d]pyrimidin-6-yl)methyl)-3-azabicyclo[3.1.0]hexane-2,4-dione [Example 221]
> 100 | Cc1cc(Cl)cc(-c2ncnc3cc(CN4CCCC4=O)sc23)c1CN1C[C@@H](C)NC[C@@H]1C [Example 81, 1-((4-(5-chloro-2-(((2S,5R)-2,5-dimethylpiperazin-1-yl)methyl)-3-methylphenyl)thieno[3,2-d]pyrimidin-6-yl)methyl)pyrrolidin-2-one]
> 100 | Cc1cc(Cl)cc(-c2ccnc3cc(Cn4c(=O)ccn(CC(F)(F)F)c4=O)sc23)c1CN1CCNC(=O)C1 [Example 1, 3-((7-(5-chloro-3-methyl-2-((3-oxopiperazin-1-yl)methyl)phenyl)thieno[3,2-b]pyridin-2-yl)methyl)-1-(2,2,2-trifluoroethyl)pyrimidine-2,4(1H,3H)-dione]
< 10 | Cc1cc(Cl)cc(-c2ccnc3cc(CN4C(=O)CCC4=O)sc23)c1CN1[C@@H](C)CN(C)C[C@@H]1C [Example 29, 1-((7-(5-chloro-3-methyl-2-(((2S,6S)-2,4,6-trimethylpiperazin-1-yl)methyl)phenyl)thieno[3,2-b]pyridin-2-yl)methyl)pyrrolidine-2,5-dione]
< 10 | Cc1cc(Cl)cc(-c2ncnc3cc(CN4C(=O)CCN(C)C4=O)sc23)c1CC1CNCC2(CCC2)O1 (stereo not shown) [Example 222, 3-((4-(2-((5-oxa-8-azaspiro[3.5]nonan-6-yl)methyl)-5-chloro-3-methylphenyl)thieno[3,2-d]pyrimidin-6-yl)methyl)-1-methyldihydropyrimidine-2,4(1H,3H)-dione]
10 to 100 | Cc1cc(Cl)cc(-c2ccnc3c(F)c(CN4C(=O)CCN(C)C4=O)sc23)c1C[C@@H]1CNCCO1 [Example 148, (R)-3-((7-(5-chloro-3-methyl-2-(morpholin-2-ylmethyl)phenyl)-3-fluorothieno[3,2-b]pyridin-2-yl)methyl)-1-methyldihydropyrimidine-2,4(1H,3H)-dione]
< 10 | Cc1cc(Cl)cc(-c2ncnc3cc(Cn4c(=O)ccn(C)c4=O)sc23)c1CC1CNCCO1 (stereo not shown) [Example 162, 3-((4-(5-chloro-3-methyl-2-(morpholin-2-ylmethyl)phenyl)thieno[3,2-d]pyrimidin-6-yl)methyl)-1-methylpyrimidine-2,4(1H,3H)-dione]
